From patent US11912701B2, “Protein kinase inhibitors for promoting liver regeneration or reducing or preventing hepatocyte death” (HEPAREGENIX GMBH, priority 2018, dated 2024)

How the values were obtained:
MKK7 [1] = biological target: T1, MKK7 (Homo sapiens, UniProt O14733); assay: KINOMEscan competition binding assay, MKK7; design: M1/R419; host or cells: HEK-293; details: ratio PoC (off-target)/PoC (MKK4)
T1 sequence (O14733 1-419): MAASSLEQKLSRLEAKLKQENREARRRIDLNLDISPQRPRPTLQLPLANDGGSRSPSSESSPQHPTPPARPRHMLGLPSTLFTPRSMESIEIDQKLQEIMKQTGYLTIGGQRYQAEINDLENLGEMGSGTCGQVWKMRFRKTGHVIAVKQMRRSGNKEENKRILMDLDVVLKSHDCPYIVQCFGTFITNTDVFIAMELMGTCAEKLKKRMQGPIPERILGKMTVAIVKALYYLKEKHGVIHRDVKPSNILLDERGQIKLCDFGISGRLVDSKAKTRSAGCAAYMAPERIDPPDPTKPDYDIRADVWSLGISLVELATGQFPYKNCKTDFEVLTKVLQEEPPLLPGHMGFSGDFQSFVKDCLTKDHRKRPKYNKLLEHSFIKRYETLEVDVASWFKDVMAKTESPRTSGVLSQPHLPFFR
Procedure: (§1) The assay was performed by combining three components: DNA-tagged kinase; immobilized ligand; and a test compound. The ability of the test compound to compete with the immobilized ligand was measured via quantitative PCR of the DNA tag. The technology is described in detail in Fabian, M. A. et al. A small molecule-kinase interaction map for clinical kinase inhibitors. Nat. […] Nat.
(§2) For investigation of the affinity to MKK4, BRaf, MKK7 and JNK1, the kinases were produced in HEK-293 cells and subsequently tagged with DNA for qPCR detection. […] The liganded beads were blocked with excess biotin and washed with blocking buffer (SEABLOCK™ (Pierce), 1% BSA, 0.05% TWEEN®20, 1 mM DTT) to remove unbound ligand and to reduce nonspecific binding. […] All reactions were performed in polystyrene 96-well plates in a final volume of 0.135 mL. […] The kinase concentration in the eluates was measured by qPCR.
(§3) The test compounds were provided as 10 mM stock solutions. The test solutions at indicated final concentrations were prepared at DiscoverX.
(§4) Potency of representative examples against the protein kinases MKK4, BRaf, MKK7 and JNK1 expressed as residual percent of control binding (PoC), was determined at a concentration of 100 nM. The determined potencies are categorized as follows:
(§5) The binding selectivity of representative examples against the protein kinases BRaf, MKK7 and JNK1, altogether denominated as “off-targets” is determined by the ratios of PoC (off-target)/PoC (MKK4).

MKK4 [2] = biological target: T2, MKK4 (Homo sapiens, UniProt P45985); assay: KINOMEscan competition binding assay, MKK4; details: residual percent of control binding (PoC) at 100 nM
T2 construct: S84/D399; host or cells: HEK-293
T2 sequence (P45985 84-399): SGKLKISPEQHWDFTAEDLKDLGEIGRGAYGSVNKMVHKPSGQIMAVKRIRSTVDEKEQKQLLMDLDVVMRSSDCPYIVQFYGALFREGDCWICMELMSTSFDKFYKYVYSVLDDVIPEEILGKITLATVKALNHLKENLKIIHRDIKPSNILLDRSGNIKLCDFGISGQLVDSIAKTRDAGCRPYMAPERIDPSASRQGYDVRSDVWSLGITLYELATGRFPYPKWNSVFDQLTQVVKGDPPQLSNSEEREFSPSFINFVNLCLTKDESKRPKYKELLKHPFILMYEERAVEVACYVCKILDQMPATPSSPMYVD
Procedure: as §1, §2, §3
Potency of representative examples against the protein kinases MKK4, BRaf, MKK7 and JNK1 expressed as residual percent of control binding (PoC), was determined at a concentration of 100 nM. The determined potencies are categorized as follows: […]

BRaf [3] = biological target: T3, BRaf (Homo sapiens, UniProt P15056); assay: KINOMEscan competition binding assay, BRaf; details: ratio PoC (off-target)/PoC (MKK4)
T3 construct: purchased ProQinase GmbH, Freiburg, Germany (33PanQinase Assay Service)
Procedure: as §1, §2, §3, §4, §5

JNK1 [4] = biological target: T4, JNK1 (Homo sapiens, UniProt P45983); assay: KINOMEscan competition binding assay, JNK1; design: M1/Q384; host or cells: HEK-293; details: ratio PoC (off-target)/PoC (MKK4)
Procedure: as §1, §2, §3, §4, §5
Target sequence in this assay (P45983 1-384 isoform P45983-2): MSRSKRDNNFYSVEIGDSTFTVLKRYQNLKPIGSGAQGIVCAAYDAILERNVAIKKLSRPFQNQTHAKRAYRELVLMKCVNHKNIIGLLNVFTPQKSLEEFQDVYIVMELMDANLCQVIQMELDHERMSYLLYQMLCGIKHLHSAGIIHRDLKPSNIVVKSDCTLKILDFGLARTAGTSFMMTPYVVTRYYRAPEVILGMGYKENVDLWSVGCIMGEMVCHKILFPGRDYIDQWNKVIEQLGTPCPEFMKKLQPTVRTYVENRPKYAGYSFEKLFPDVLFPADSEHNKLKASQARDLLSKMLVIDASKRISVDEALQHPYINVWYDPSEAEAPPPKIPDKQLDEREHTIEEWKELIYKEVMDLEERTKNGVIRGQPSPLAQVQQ

MKK4 [5] = biological target: T5, MKK4 (Homo sapiens, UniProt P45985); assay: 33PanQinase enzyme assay, MKK4; assay type: biochemical; details: assay 'IC50'; for IC50: read-out: Potency MKK4 (IC50)
T5 construct: purchased ProQinase GmbH, Freiburg, Germany (33PanQinase Assay Service)
T5 sequence (P45985 1-399): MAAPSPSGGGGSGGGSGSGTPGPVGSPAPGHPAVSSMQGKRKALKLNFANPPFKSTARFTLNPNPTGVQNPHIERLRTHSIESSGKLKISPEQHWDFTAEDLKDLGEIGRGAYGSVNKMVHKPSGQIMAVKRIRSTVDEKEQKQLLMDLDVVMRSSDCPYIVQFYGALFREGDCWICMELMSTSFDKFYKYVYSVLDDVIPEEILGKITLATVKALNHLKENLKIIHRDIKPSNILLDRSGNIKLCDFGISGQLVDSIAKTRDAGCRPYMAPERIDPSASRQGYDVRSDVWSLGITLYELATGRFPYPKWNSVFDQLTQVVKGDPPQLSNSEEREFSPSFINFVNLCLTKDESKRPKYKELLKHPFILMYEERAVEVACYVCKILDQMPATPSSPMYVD
Outline: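 Radiometric 33PanQinase assay: kinase, substrate, ATP and compound in standard buffer, 60 min at 30 °C; 33Pi incorporation read by scintillation counting.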

JNK1 [6] = biological target: T4, JNK1; assay: 33PanQinase enzyme assay, JNK1; assay type: biochemical; design: purchased ProQinase GmbH, Freiburg, Germany (33PanQinase Assay Service); details: ratio IC50(JNK1)/IC50(MKK4)
Outline: (§6)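 Radiometric kinase reactions with ATP, test compound in DMSO and enzyme/substrate mix were incubated 60 min at 30 °C, stopped with 2% H3PO4 and washed; incorporated 33Pi was counted by scintillation. Single-concentration data are given as % residual activity; IC50 values come from least-squares curve fits.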
Target sequence in this assay (P45983 whole entry): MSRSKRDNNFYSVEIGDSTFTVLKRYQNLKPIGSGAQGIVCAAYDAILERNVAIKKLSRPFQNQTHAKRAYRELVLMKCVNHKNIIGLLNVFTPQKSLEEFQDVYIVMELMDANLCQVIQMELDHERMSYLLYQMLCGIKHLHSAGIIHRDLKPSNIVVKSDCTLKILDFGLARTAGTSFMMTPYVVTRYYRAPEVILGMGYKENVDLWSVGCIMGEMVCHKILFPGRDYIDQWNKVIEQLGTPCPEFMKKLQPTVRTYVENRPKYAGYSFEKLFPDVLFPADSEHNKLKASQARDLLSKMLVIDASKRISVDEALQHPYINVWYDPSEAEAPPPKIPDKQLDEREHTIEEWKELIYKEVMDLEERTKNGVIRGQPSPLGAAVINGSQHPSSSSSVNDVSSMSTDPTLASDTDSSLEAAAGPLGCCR

BRaf [7] = biological target: T3, BRaf; assay: 33PanQinase enzyme assay, BRaf; assay type: biochemical; details: ratio IC50(BRaf)/IC50(MKK4)
Outline: as §6

MKK7 [8] = biological target: T1, MKK7; assay: 33PanQinase enzyme assay, MKK7; assay type: biochemical; design: purchased ProQinase GmbH, Freiburg, Germany (33PanQinase Assay Service); details: ratio IC50(MKK7)/IC50(MKK4)
Outline: as §6

T3 sequence (P15056 whole entry, species assumed): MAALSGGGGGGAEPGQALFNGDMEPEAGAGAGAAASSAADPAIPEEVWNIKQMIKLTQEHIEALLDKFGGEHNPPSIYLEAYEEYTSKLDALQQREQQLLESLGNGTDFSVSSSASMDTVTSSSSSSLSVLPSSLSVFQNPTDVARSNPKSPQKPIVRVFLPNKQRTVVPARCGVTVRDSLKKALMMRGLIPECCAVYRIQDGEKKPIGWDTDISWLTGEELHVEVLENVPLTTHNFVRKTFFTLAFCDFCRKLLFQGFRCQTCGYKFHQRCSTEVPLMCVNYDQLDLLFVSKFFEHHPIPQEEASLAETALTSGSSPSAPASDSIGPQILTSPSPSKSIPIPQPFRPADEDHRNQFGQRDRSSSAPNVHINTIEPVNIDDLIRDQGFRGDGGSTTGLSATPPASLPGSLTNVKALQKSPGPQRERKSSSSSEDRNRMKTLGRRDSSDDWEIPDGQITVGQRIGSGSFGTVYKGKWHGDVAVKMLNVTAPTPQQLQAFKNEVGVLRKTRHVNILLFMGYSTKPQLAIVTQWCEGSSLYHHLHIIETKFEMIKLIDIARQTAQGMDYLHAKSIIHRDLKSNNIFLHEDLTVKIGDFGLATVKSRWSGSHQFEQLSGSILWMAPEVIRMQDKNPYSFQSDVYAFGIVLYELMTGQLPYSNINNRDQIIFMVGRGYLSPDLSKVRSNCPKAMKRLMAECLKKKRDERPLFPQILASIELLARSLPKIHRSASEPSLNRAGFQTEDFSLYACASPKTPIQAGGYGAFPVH

| Structure (SMILES) | selectivity based on % Ctrl @100 nM vs. MKK7 (MKK7 [1]) | MKK4 [% Ctrl @ 100 nM (MKK4 [2]) | selectivity based on % Ctrl @100 nM vs. Braf (BRaf [3]) | selectivity based on % Ctrl @100 nM vs. JNK1 (JNK1 [4]) | IC50 (MKK4 [5]) | Selectivity JNK1, IC50(off-target)/IC50(MKK4) (JNK1 [6]) | Selectivity Braf, IC50(off-target)/IC50(MKK4) (BRaf [7]) | Selectivity IVIKK7, IC50(off-target)/IC50(MKK4) (MKK7 [8]) | Potency MKK4 (IC50) (MKK4 [5]) |
| --- | --- | --- | --- | --- | --- | --- | --- | --- | --- |
| CCCS(=O)(=O)Nc1cc(Br)cc(C(=O)c2c[nH]c3ncc(-c4ccc(Cl)cc4)cc23)c1 [Example 13, N-(3-bromo-5-(5-(4-chlorophenyl)-1H-pyrrolo[2,3-b]pyridine-3-carbonyl)-phenyl)propane-1-sulfonamide] | ◯ (3 ≥ Ratio) | ◯ (30 ≤ PoC) | ◯ (3 ≥ Ratio) | ◯ (3 ≥ Ratio) |  |  |  |  |  |
| CCCNS(=O)(=O)c1cccc(C(=O)c2c[nH]c3ncc(Br)cc23)c1 [Example 14, 3-(5-bromo-1H-pyrrolo[2,3-b]pyridine-3-carbonyl)-N-propyl benzene sulfonamide] | ◯ (3 ≥ Ratio) | ◯ (30 ≤ PoC) | ◯ (3 ≥ Ratio) | ◯ (3 ≥ Ratio) |  |  |  |  |  |
| CCCS(=O)(=O)Nc1cc(Cl)cc(C(=O)c2c[nH]c3ncc(-c4ccc(Cl)cc4)cc23)c1 [Example 16, N-(3-chloro-5-(5-(4-chlorophenyl)-1H-pyrrolo[2,3-b]pyridine-3-carbonyl)phenyl)propane-1-sulfonamide] | ◯ (3 ≥ Ratio) | ◯ (30 ≤ PoC) | ◯ (3 ≥ Ratio) | ◯ (3 ≥ Ratio) |  |  |  |  |  |
| C#Cc1cnc2[nH]cc(C(=O)c3c(F)ccc(NS(=O)(=O)CCC)c3F)c2c1 [Example 18, N-(3-(5-ethynyl-1H-pyrrolo[2,3-b]pyridine-3-carbonyl)-2,4-difluorophenyl) propane-1-sulfonamide] | + (10 ≥ ratio > 3) | + (3 ≤ PoC < 30) | ◯ (3 ≥ Ratio) | + (10 ≥ ratio > 3) |  |  |  |  |  |
| O=C(c1cccc(NS(=O)(=O)Cc2ccccc2)c1F)c1c[nH]c2ncc(-c3cc4c(cc3Cl)OCCO4)cc12 [Example 127, N-(3-(5-(7-chloro-2,3-dihydrobenzo[b][1,4]dioxin-6-yl)-1H-pyrrolo[2,3-b]pyridine-3-carbonyl)-2-fluorophenyl)-1-phenylmethanesulfonamide] |  | ++ (1 ≤ PoC < 3) |  |  | 100 to 1000 nM |  |  |  |  |
| CCCCS(=O)(=O)Nc1c(F)ccc(C(=O)c2c[nH]c3ncc(-c4ccc(OC)cc4Cl)cc23)c1F [Example 226, N-(3-(5-(2-chloro-4-methoxyphenyl)-1H-pyrrolo[2,3-b]pyridine-3-carbonyl)-2,6-difluorophenyl)butane-1-sulfonamide] |  |  |  |  | < 100 nM | ++ (100 ≥ IC50(off-target)/IC50(MKK4) > 10) | +++ (IC50(off-target)/IC50(MKK4) > 100) | +++ (IC50(off-target)/IC50(MKK4) > 100) |  |
| CCCCS(=O)(=O)Nc1c(F)ccc(C(=O)c2c[nH]c3ncc(-c4ccc(F)cc4C)cc23)c1F [Example 227, N-(2,6-difluoro-3-(5-(4-fluoro-2-methylphenyl)-1H-pyrrolo[2,3-b]pyridine-3-carbonyl)phenyl)butane-1-sulfonamide] |  |  |  |  | < 100 nM | +++ (IC50(off-target)/IC50(MKK4) > 100) | +++ (IC50(off-target)/IC50(MKK4) > 100) | +++ (IC50(off-target)/IC50(MKK4) > 100) |  |
| CCCS(=O)(=O)Nc1c(F)ccc(C(=O)c2c[nH]c3ncc(-c4ccncc4C)cc23)c1F [Example 235, N-(2,6-difluoro-3-(5-(3-methylpyridin-4-yl)-1H-pyrrolo[2,3-b]pyridine-3-carbonyl)phenyl)propane-1-sulfonamide] |  |  |  |  | < 100 nM | +++ (IC50(off-target)/IC50(MKK4) > 100) | +++ (IC50(off-target)/IC50(MKK4) > 100) | +++ (IC50(off-target)/IC50(MKK4) > 100) |  |
| CCCS(=O)(=O)Nc1c(F)ccc(C(=O)c2c[nH]c3ncc(-c4cnc(OC)nc4OC)cc23)c1F [Example 236, N-(3-(5-(2,4-dimethoxypyrimidin-5-yl)-1H-pyrrolo[2,3-b]pyridine-3-carbonyl)-2,6-difluorophenyl)propane-1-sulfonamide] |  |  |  |  | < 100 nM | +++ (IC50(off-target)/IC50(MKK4) > 100) | +++ (IC50(off-target)/IC50(MKK4) > 100) | +++ (IC50(off-target)/IC50(MKK4) > 100) |  |
| CCCS(=O)(=O)Nc1c(F)ccc(C(=O)c2c[nH]c3ncc(-c4cnc(Cl)nc4)cc23)c1F [Example 237, N-(3-(5-(2-chloropyrimidin-5-yl)-1H-pyrrolo[2,3-b]pyridine-3-carbonyl)-2,6-difluorophenyl)propane-1-sulfonamide] |  |  |  |  |  | +++ (IC50(off-target)/IC50(MKK4) > 100) | +++ (IC50(off-target)/IC50(MKK4) > 100) | +++ (IC50(off-target)/IC50(MKK4) > 100) | +++· |
| CCCS(=O)(=O)Nc1c(F)ccc(C(=O)c2c[nH]c3ncc(C4CCC4)cc23)c1F [Example 239, N-(3-(5-cyclobutyl-1H-pyrrolo[2,3-b]pyridine-3-carbonyl)-2,6-difluorophenyl)propane-1-sulfonamide] |  |  |  |  | < 100 nM | ++ (100 ≥ IC50(off-target)/IC50(MKK4) > 10) | +++ (IC50(off-target)/IC50(MKK4) > 100) | +++ (IC50(off-target)/IC50(MKK4) > 100) |  |
